Laboratory results taken from patent US20060167270A1, “5-substituted 2h-pyrazone-3-carbixylic acid derivatives as antilipolytic agents for the treatment of metabolic-related disorders such as dyslipidemia” (Arena Pharmaceuticals Inc., priority 2002, published 2006).

Biological target: T1, hRUP25 (Homo sapiens, UniProt Q8TDS4)
T1 construct: expressed in transfected cells; host or cells: CHO cells, stably transfected
Assay: cAMP Whole Cell assay (Flash Plate Adenylyl Cyclase kit) in CHO cells stably transfected with hRUP25
Assay type: cell-based
Conditions: CHO cells stably expressing hRUP25; average of two (2) trials
From the text: A modified Flash Plate™ Adenylyl Cyclase kit (New England Nuclear, Cat. No. SMP004A) was utilized for direct identification of candidate compounds as agonists to hRUP25 (Seq. Id. Nos. 1 & 2) in accordance with the following protocol:
CHO cells stably transfected with an expression vector encoding hRUP25 and cultured under condition permissive for cell surface expression of the encoded hRUP25 receptor were harvested from flasks via non-enzymatic means. The cells were washed in PBS and resuspended in the manufacturer's Assay Buffer. Live cells were counted using a hemacytometer and Trypan blue exclusion, and the cell concentration was adjusted to 2×10^6 cells/ml. cAMP standards and Detection Buffer (comprising 2 μCi of tracer [^125I]-cAMP (100 μl) to 11 ml Detection Buffer) were prepared and maintained in accordance with the manufacturer's instructions. Candidate compounds identified as per above (if frozen, thawed at room temperature) were added to their respective wells (preferably wells of a 96-well plate) at increasing concentrations (3 μl/well; 12 μM final assay concentration). […] Plates were counted in a Wallac MicroBeta™ plate reader using “Prot. #31” (as per manufacturer instructions).
The biological in vitro activity was determined using the cAMP Whole Cell method, one representative example is shown in the table below: […]

T1 sequence (Q8TDS4 whole entry): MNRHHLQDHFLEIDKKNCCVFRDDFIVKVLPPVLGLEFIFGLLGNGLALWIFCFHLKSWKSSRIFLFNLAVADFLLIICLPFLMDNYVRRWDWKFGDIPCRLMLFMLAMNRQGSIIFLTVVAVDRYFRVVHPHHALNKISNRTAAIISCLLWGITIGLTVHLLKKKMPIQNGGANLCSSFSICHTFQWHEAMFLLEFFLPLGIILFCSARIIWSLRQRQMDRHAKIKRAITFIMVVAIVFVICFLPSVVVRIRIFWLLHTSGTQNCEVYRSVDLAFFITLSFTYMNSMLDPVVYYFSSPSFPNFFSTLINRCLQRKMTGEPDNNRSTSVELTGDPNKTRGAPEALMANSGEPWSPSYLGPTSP

## CCCCc1[nH]nc(C(=O)O)c1F [Compound 8, 5-Butyl-4-fluoro-1H-pyrazole-3-carboxylic acid]
  IC50: 900 nM
